In paper PMC4309423, “Total synthesis of periploside A, a unique pregnane hexasaccharide with potent immunosuppressive effects” (Nature Communications, 2015):

Key:
[1] = Cytotoxicity assay (MTT) on fresh spleen cells; type: cell-based, mice; details: BALB/C, fresh spleen cells (T-lymphocytes); T-lymphocyte (mouse spleen cells), 48 h, MTT
Protocol: (§1) Supplementary Figure 62. Inhibition of the growth of T-lymphocytes by synthetic compounds 1, 31, and 41-43. […]
(§2) Bioassay for the immunosuppressive activities17
(§3) Preparation of spleen cells from mice
(§4) BALB/C mice were sacrificed and spleens were removed aseptically. A single cell suspension was prepared after cell debris and clumps were removed. Erythrocytes were lysed using ammonium chloride buffer solution. The isolated lymphocytes were washed 3 times with PBS containing 2% FBS, and were re-suspended in RPMI 1640 medium at the indicated concentration.
(§5) Fresh spleen cells ([…]) were cultured in 96-well flat plates with 200 µL of RPMI 1640 media containing 10% FBS, 100 U/mL penicillin and 100 µg/mL streptomycin in a humidified, 37 °C, 5% CO2-containing incubator for 48 h, in the presence or absence of various concentrations of the compounds. 18 µL of MTT (5 mg/mL) was added to each well at the final 5 h culture. Then 90 µ L of lysis buffer (10% SDS, 50% DMF, pH 7.2) was added to each well for 6–7 h and the absorbance values at 570 nm were read by microplate reader (Bio-Rad, Model 550). […]

[2] = test system: ConA-induced T-lymphocyte proliferation (spleen cells from BALB/C mice); test: T cell function assay: ConA-induced T-lymphocyte proliferation ([3H]-thymidine uptake); type: cell-based; details: for IC50: Mus musculus, ConA (5 μg/mL)-induced T-lymphocyte proliferation, 48 h, [3H]-thymidine uptake
Protocol: Supplementary Figure 63. Inhibition of concanavalin A (ConA)-induced
T-lymphocyte proliferation by synthetic compounds 1, 31, and 41-43.
as §2, §3
as §4, with “concentration. […]” for “concentration.”
1 x 10^6 of fresh spleen cells were cultured for 48 h at the same conditions as mentioned above. The cultures were stimulated with 5 µg/mL of concanavalin A (ConA) to induce T cells proliferative responses. The compounds were added to cultures with indicated concentrations to test their bioactivities. Proliferation was assessed in terms of uptake of [3H]-thymidine during last 8 h culture pulsing with 25 µCi of [3H]-thymidine for each well, and then cells were harvested onto glass fiber filters by a Basic 96 harvester. The incorporated radioactivity was counted by a liquid scintillation counter (1540 MicroBeta Trilux, Perkin–Elmer Life Sciences).

[3] = test system: T-lymphocyte (spleen cells from BALB/C mice); test: Cytotoxicity assay (MTT) on fresh spleen cells; type: cell-based; details: synthetic vs natural periploside A
Protocol: as §1, §2, §3, §4, §5

T cell = test system: T cell; set-up: method as in PMID 18835000, PMID 21843896; details: toxicity; natural product; cited from earlier work
mice models = test system: mice models; set-up: method as in PMID 16204471, PMID 16751252; details: cited from earlier work
[4] = test system: ConA-induced T cell proliferation; set-up: method as in PMID 18835000, PMID 21843896; details: natural product, cited from earlier work

CO[C@H]1[C@@H](O)[C@@H](C)O[C@@H](O[C@H]2[C@@H](OC)C[C@H](O[C@H]3[C@@H](OC)C[C@H](O[C@H]4[C@@H](OC)C[C@H](O[C@@H]5[C@@H](C)O[C@]6(C[C@H]5OC)OCO[C@@H]5C[C@H](O[C@@H](C)[C@@]7(O)CCC8C9CC=C%10C[C@@H](O)CC[C@]%10(C)C9CC[C@@]87C)O[C@H](C)[C@H]5O6)O[C@@H]4C)O[C@@H]3C)O[C@@H]2C)[C@@H]1OC(C)=O (stereo partly drawn) [C1′′-epi-periploside A (31), C1′′-epi-periploside A]
CC50 at 48 h [1]: 1580 ± 190 nM | IC50 [2]: 410 ± 150 nM

COC1CC(OC2C(C)OC3(CC2OC)OCOC2CC(OC(C)C4(O)CCC5C6CC=C7CC(O)CCC7(C)C6CCC54C)OC(C)C2O3)OC(C)C1OC1CC(OC)C(OC2CC(OC)C(OC3OC(C)C(O)C(OC)C3OC(C)=O)C(C)O2)C(C)O1 (stereo not shown) [Periploside A (1), Periploside A]
toxicity against T-lymphocyte compared with the natural product [3]: similar | CC50 at 48 h [1]: 2100 ± 320 nM | CC50 (T cell): 10100 nM | IC50 [2]: 170 ± 40 nM | activity against ConA-induced T-lymphocyte proliferation compared with the natural product ([2]; synthetic vs natural periploside A): similar | immunosuppressive effects in mice models (mice models): significant | IC50 ([4]; ConA-induced T cell proliferation): 640 nM | inhibition of ConA-induced T cell proliferation compared with reference drugs [4]: as potently as rapamycin and cyclosporin A

CO[C@@H]1C[C@]2(OCO[C@@H]3C[C@H](O[C@@H](C)[C@@]4(O)CCC5C6CC=C7C[C@@H](O)CC[C@]7(C)C6CC[C@@]54C)O[C@H](C)[C@H]3O2)O[C@H](C)[C@H]1O (stereo partly shown) [Disaccharide 42]
CC50 at 48 h [1]: 12800 ± 520 nM | IC50 [2]: 6200 ± 3200 nM

CO[C@H]1[C@@H](O)[C@@H](C)O[C@@H](O[C@H]2[C@@H](OC)C[C@H](O[C@H]3[C@@H](OC)C[C@H](O[C@H]4[C@@H](OC)C[C@@H](O[C@@H]5[C@@H](C)O[C@@]6(C[C@H]5OC)OCO[C@@H]5C[C@H](O[C@@H](C)[C@@]7(O)CCC8C9CC=C%10C[C@@H](O)CC[C@]%10(C)C9CC[C@@]87C)O[C@H](C)[C@H]5O6)O[C@@H]4C)O[C@@H]3C)O[C@@H]2C)[C@@H]1OC(C)=O (stereo partly drawn) [C1′′′-epi-periploside A (41), C1′′′-epi-periploside A]
CC50 at 48 h [1]: 11400 ± 3660 nM | IC50 [2]: 1960 ± 430 nM

CO[C@@H]1C[C@]2(OCO[C@@H]3C[C@@H](O[C@@H](C)[C@@]4(O)CCC5C6CC=C7C[C@@H](O)CC[C@]7(C)C6CC[C@@]54C)O[C@H](C)[C@H]3O2)O[C@H](C)[C@H]1O (stereo partly shown) [Disaccharide 43]
CC50 at 48 h [1]: 27700 ± 6610 nM | IC50 [2]: 3700 ± 2250 nM
